Source: US20110293658A1, “USE OF INKT OR TLR AGONISTS FOR PROTECTING AGAINST OR TREATING A DISEASE SUCH AS ACUTE INFECTION OR CANCER” (LUDWIG INSTITUTE FOR CANCER RESEARCH LTD., priority 2008, published 2011)

What was measured:
[1] = system: lung derived MDSC (CD11b+ Gr-1+ cells) from PR8 infected mice; format: cell-based, mouse
[2] = system: CD11b+ cells from IAV infected individuals; format: cell-based, human; conditions: L-NMMA and NOHA added together to alloreactive PBL; data not shown
[3] = system: human GM-CSF treated MDSC; experiment: Mixed lymphocyte reaction with healthy donors' GM-CSF treated MDSC; format: cell-based; conditions: for T cell proliferation in MLR with TLR-L treated MDSC: LPS 10 μg/ml, R848 5 μg/ml, Poly I:C 10 μg/ml, 24 h co-culture with added human iNKT cells, DC:MDSC 1:1
[4] = system: BM derived MDSC; experiment: OT-I proliferation assay with BM derived MDSC; format: cell-based, mouse; conditions: for MDSC suppressive activity on CFSE labelled OT-I proliferation: MDSC incubated 48 h with TLR agonist, in the absence of iNKT cells
[5] = system: CD11bCD15 positive cells; experiment: Melan-A priming experiments with CD11bCD15 positive cells from melanoma patients; format: cell-based, human; conditions: CD11bCD15 positive cells pulsed with alphaGalCer 100 ng or Threitolceramide 200 ng
Method: CD11bCD15 positive cells were pulsed with either alphaGalCer (100 ng) or Threitolceramide (200 ng) for 2 hours and then incubated with autologous iNKT cells overnight before adding autologous DC pulsed with Melan-A26-35 peptide and autologous CD11bCD15 cell depleted total leukocytes.
Experiments in FIG. 29 were carried out using the same conditions as shown in the right column of FIG. 28 (i.e. in the presence of iNKT cells and alphaGalCer pulsed CD11bCD15 positive cells) in the presence of either blocking anti CD1d (middle column) or blocking anti CD40 (right column) antibodies.
In order to assess whether secretion of IL-10 is contributing to the suppressive activity of CD11bCD15 positive cells, expansion of Melan-A26-35 specific T cell responses as assessed in the presence or absence of blocking anti 11-10 receptor antibodies. In the left hand panel of FIG. 31, expansion of Melan-A26-35 specific T cells was assessed using total leukocytes from which CD11b-CD15+ cells were removed (2.33%). Addition of CD11bCD15 positive cells reduced the frequency of Melan-A26-35 specific T cells (0.83%) (central panel).
Purification of CD11b/CD15+ cells. Since CD15 CD11b positive cells have granulocyte density, it is important to purify them without using density gradients, such as Ficol. Red blood cells are lysed from whole blood, using red lysis cell buffer and anti CD11b/CD15 specific antibodies are added to the leukocytes for FACS guided cell sorting.
Melan-A priming experiments. DCs were generated by culturing monocytes for 4 days in RPMI/10% FCS supplemented with 50 ng/ml GM-CSF (Pepro-tech) and 1,000 U/ml IL-4 (Salio, M., et al. 2007. Proc. Natl. Acad. Sci. U.S.A. 104:20490-20495). […] After 2 weeks, cells were stained with HLA-A2 tetramers loaded with melan-A26-35 peptide and anti CD8.
Harnessing iNKT cells. The protocol to purify Cdl lbCd15 cells and differentiate DC is similar to the protocol described earlier. Cdl lbCd15 cells were pulsed with either alphaGalCer (100 ng) or with threitolceramide (200 ng) and then incubated with iNKT cells for 12 hours. Cells were then washed pulsed with the melan-A26-35 peptide and incubated with total leukocytes. After 2 weeks in culture, cells were stained with HLA-A2 melan-A tetramers and anti-CD8 antibodies.

[6] = system: EG7 cells (EL4 tumor cell line transfected with ovalbumin cDNA); set-up: species or system C57 BL/6 mice; conditions: mouse, in vivo, iv
[7] = system: iNKT cells; experiment: IFN-γ and IL-4 release from iNKT cells incubated with treated MDSC; format: cell-based, mouse; conditions: WT MDSC treated with TLR agonist, iNKT cells incubated 48 h
Method: (B) IFN-γ and IL-4 release from iNKT cells incubated for 48 h with CpG or Poly I:C treated MDSC, in the presence or absence of anti CD1d blocking antibody. Data represent the average of 3 replicates ±S.D and are representative of 3 separate experiments.
(A) iNKT cells derived from WT mice fail to produce IFN-γ when incubated with TLR-L matured MDSC derived from hexβ^−/− mice. Analysis of IFN-γ secretion by iNKT cells, derived from WT mice, co-incubated with TLR-L treated MDSC derived from either hexβ^−/− or iGb3S^−/− mice. To assess the role of CD1d molecules expressed on the surface of MDSC, TLR-L treated MDSC were also incubated with blocking […].
Isolation and culture of mouse MDSC. […]
Isolation of mouse iNKT cells. […] The % of iNKT cells was measured by CD1d/α-GalCer tetramer staining and ranged from ˜14% to ˜60%. […]
ELISA: 1) Cytokines. […] The amount of IL-12p40, IFN-γ and IL4 was measured using an ELISA kit (eBioscience). […] Sera from PR8 infected mice were collected 6 days post infection and antibody titers were determined by coating 96-well maxisorb NUNC plates with 5 ng/ml of PR8 virus overnight at 4° C. […] Color reactions were developed with 3,3′,5-5′-Tetramethylbenzidine (TMB) (Sigma-Aldrich) and the absorbance was measured at 490 nm.

Compound: CNC(=N)NCCC[C@H](N)C(=O)O [L-NMMA, N^G-monomethyl-L-arginine]
- OT-I proliferation in the absence of MDSC ([1]; L-NMMA and NOHA added together to OT-I splenocytes, no MDSC, data not shown): did not affect OT-I proliferation
- suppressive activity of MDSC from PR8 infected mice on CFSE labelled OT-I proliferation ([1]; […], L-NMMA and NOHA used together (500 μM)): is reduced
- T cell proliferation in the absence of CD11b+ cells [2]: did not affect T cell proliferation
- MLR suppressive activity of healthy donors GM-CSF treated MDSC ([3]; NOHA and L-NMMA added together): can be blocked
- PBL proliferation in MLR in the absence of MDSC ([3]; NOHA and L-NMMA added together, no MDSC, data not shown): does not affect PBL proliferation

Compound: CCCCN1C[C@H](O)[C@@H](O)[C@@H](O)[C@H]1CO [NB-DGJ, N-butyldeoxygalactonojirimycin]
- ability of iNKT cells to relieve the suppressive activity of MDSC (CFSE labelled OT-I proliferation) ([4]; CpG and poly I:C treated MDSC, increasing concentrations of NB-DGJ, incubated with iNKT cells 24 h): reduced the ability of iNKT cells to relieve the suppressive activity of MDSC
- OT-I proliferation in absence of MDSC ([4]; NB-DGJ added to OT-I splenocytes, no MDSC, data not shown): did not affect OT-I proliferation

Compound: CCOCc1nc2c(N)nc3ccccc3c2n1CC(C)(C)O [R848]
- T cell proliferation in MLR with TLR-L treated MDSC [3]: rescues T cell proliferation
- MDSC suppressive activity on CFSE labelled OT-I proliferation [4]: partially relieved

Compound: CCCCCCCCCCCCCCCCCCCCCCCCCC(=O)N[C@@H](COC[C@H](O)[C@@H](O)CO)[C@H](O)[C@H](O)CCCCCCCCCCCCCC [threitolceramide]
- frequency of Melan-A26-35 specific T cells ([5]; in the absence of added iNKT cells, unpulsed 0.34%): 0.29%
- frequency of Melan-A26-35 specific T cells ([5]; with addition of autologous iNKT cells): 2.87%
- frequency of MDSCs (CD11b+Gr1+ positive cells) [6]: lower frequency
- frequency of Ova specific T cell responses (H-2Kb tetramer staining) [6]: higher frequency
- tumor size / tumor regression [6]: Tumour regression

Compound: poly I:C
- T cell proliferation in MLR with TLR-L treated MDSC [3]: rescues T cell proliferation
- activation of iNKT cells by treated MDSC (IFNγ and IL-4 secretion) [7]: capable of activating iNKT cells
- MDSC suppressive activity on CFSE labelled OT-I proliferation [4]: partially relieved
